Measurements from patent publication US7074742B2, “Pyridinyl amides and imides for use as fungicides” (E. I. du Pont de Nemours and Company, priority 2000, dated 2006).

Columns and labels:
Type in all cases: in vivo
[1] = test system: Phytophthora infestans; conditions: preventive spray on tomato seedlings; 100 = 100% disease control, 0 = no control; concentration not marked in table
[2] = test system: Pyricularia oryzae; conditions: preventive spray on rice seedlings; 100 = 100% disease control, 0 = no control; concentration not marked in table
[3] = test system: Erysiphe graminis f. sp. tritici; assay: TEST A: preventive spray on wheat seedlings, wheat powdery mildew, disease rating; conditions: 100 = 100% disease control, 0 = no control relative to controls, concentration not marked in table
[4] = test system: Plasmopara viticola; assay: TEST E: preventive spray on grape seedlings, grape downy mildew, disease rating; conditions: 100 = 100% disease control, 0 = no control, concentration not marked in table
[5] = test system: Puccinia recondita; assay: TEST B: preventive spray on wheat seedlings, wheat leaf rust, disease rating; conditions: 100 = 100% disease control, 0 = no control, concentration not marked in table

Row | SMILES | Test D disease control rating (potato and tomato late blight) [1] | Test C disease control rating (rice blast) [2] | Test A disease control rating (wheat powdery mildew) [3] | Test E disease control rating (grape downy mildew) [4] | Test B disease control rating (wheat leaf rust) [5]
1 | Nc1ncccc1C(=O)NCc1ncc(C(F)(F)F)cc1Cl [Cmpd 9] | 7% | 0% | 0% | 0% | 28%
2 | O=C(NCc1ncc(C(F)(F)F)cc1Cl)c1cncc(C#Cc2ccccc2)c1 [Cmpd 17] | 25% | 0% | 13% | 0% | 0%
3 | O=C(NCc1ncc(C(F)(F)F)cc1Cl)c1cccnc1Oc1ccccc1 [Cmpd 15] | 7% | 30% | 0% | 8% | 38%
4 | O=C(NCc1ncc(C(F)(F)F)cc1Cl)c1cccnc1Sc1ccccc1 [Cmpd 16] | 34% | 100% | 0% | 8% | 9%
5 | Cc1ccc(C(=O)NCc2ncc(C(F)(F)F)cc2Cl)c(Cl)n1 [Cmpd 14] | 100% | 90% | 0% | 98% | 19%
6 | Cc1nc(Cl)ccc1C(=O)NCc1ncc(C(F)(F)F)cc1Cl [Cmpd 25] | 79% | 13% | 0% | 16% | 9%
7 | COc1nc(C(F)(F)F)ccc1C(=O)NCc1ncc(C(F)(F)F)cc1Cl [Cmpd 22] | 7% | 0% | 0% | 0% | 0%
8 | O=C(NCc1ncc(C(F)(F)F)cc1Cl)c1cnc(Cl)c(Cl)c1 [Cmpd 7] |  |  | 0% |  | 0%
9 | CCOc1ncccc1C(=O)NCc1ncc(C(F)(F)F)cc1Cl [Cmpd 13] | 3% | 0% | 0% | 23% | 9%
10 | O=C(NCc1ncc(C(F)(F)F)cc1Cl)c1ccc(C(F)(F)F)nc1Br [Cmpd 18] | 32% | 80% | 0% | 0% | 9%
11 | Cc1ncccc1C(=O)NCc1ccc(Oc2cccc(C(F)(F)F)c2)nc1 [Cmpd 33] | 71% |  | 91% |  | 
12 | Cc1ccc(C(=O)NCc2ncc(C(F)(F)F)cc2Cl)c(O)n1 [Cmpd 19] | 7% | 0% | 0% | 8% | 9%
13 | COc1cc(C(=O)NCc2ncc(C(F)(F)F)cc2Cl)cc(Cl)n1 [Cmpd 34] | 31% |  | 0% |  | 44%
14 | Cc1ncccc1C(=O)NCc1ccc(Cl)nc1 [Cmpd 32] | 32% | 0% | 0% |  | 0%
